Test results: US9452997B2, “Piperidine and piperazine derivatives as autotaxin inhibitors” (Merck Patent GmbH, priority 2009, dated 2016)

These compounds were tested against T1, Recombinant autotaxin (Homo sapiens, UniProt Q13822) (assay: Autotaxin assay (Amplex Red, LPC substrate)). Conditions: % of control at 1E−05 (compound concentration); uninhibited control = 100%.
T1 construct: made in house; host or cells: Hi5 insect cells (baculovirus)
Type: biochemical
In short: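 Recombinant autotaxin (Hi5 baculovirus, 16 ng) pre-incubated with compound 30 min at 22° C, then reacted with 75 μM egg LPC for 90 min at 37° C. Choline released is coupled to H2O2 and Amplex Red fluorescence (ex 485/em 612 nm). IC50 from ten 1:3 dilutions from 30 μM, duplicates, normalised to 500 μM C14 LPA.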

In the case of `CS(=O)(=O)c1ccc(CCC(=O)N2CCC(N3CCN(C(=O)c4ccc5[nH]nnc5c4)CC3)CC2)cc1` [Compound 88, 1-{4-[4-(1H-Benzotriazole-5-carbonyl)-piperazin-1-yl]-piperidin-1-yl}-3-(4-methanesulfonyl-phenyl)-propan-1-one], the “% CTRL (1E−05)” value is reported as 89%.

Same assay, conditions: recombinant autotaxin, LPC substrate, Amplex Red detection; values given as upper bounds

`O=C(OCc1cc(C(F)(F)F)cc(C(F)(F)F)c1)N1CCC(N2CCN(C(=O)c3ccc4[nH]nnc4c3)CC2)CC1` [Compound 162, 4-[4-(1H-Benzotriazole-5-carbonyl)-piperazin-1-yl]-piperidine-1-carboxylic acid 3,5-bis-trifluoromethyl-benzyl ester] and `O=C(Cc1ccc2[nH]nnc2c1)N1CCC(N2CCN(C(=O)OCc3cc(C(F)(F)F)cc(C(F)(F)F)c3)CC2)CC1` [Compound 139, 4-[1-(2-1H-Benzotriazol-5-yl-acetyl)-piperidin-4-yl]-piperazine-1-carboxylic acid 3,5-bis-trifluoromethyl-benzyl ester] cannot be ordered by IC50: less than 1 µM for the first, less than 1 µM for the second.

`O=C(OCc1cc(Cl)cc(Cl)c1)N1CCN(C2CCN(C(=O)c3ccc4[nH]nnc4c3)CC2)CC1` [Compound 19, 4-[1-(1H-Benzotriazole-5-carbonyl)-piperidin-4-yl]-piperazine-1-carboxylic acid 3,5-dichloro-benzyl ester] and `O=C(OCc1cc(F)cc(Br)c1)N1CCN(C2CCN(C(=O)c3ccc4[nH]nnc4c3)CC2)CC1` [Compound 154, 4-[1-(1H-Benzotriazole-5-carbonyl)-piperidin-4-yl]-piperazine-1-carboxylic acid 3-bromo-5-fluoro-benzyl ester] cannot be ordered by IC50: less than 1 µM for the first, less than 1 µM for the second.

`O=C(CCc1ccc(Cl)cc1Cl)N1CCC(N2CCN(C(=O)c3ccc4[nH]nnc4c3)CC2)CC1` [Compound 82, 1-{4-[4-(1H-Benzotriazole-5-carbonyl)-piperazin-1-yl]-piperidin-1-yl}-3-(2,4-dichloro-phenyl)-propan-1-one] and `Cc1ccc(C(C)CC(=O)N2CCN(C3CCN(C(=O)c4ccc5[nH]nnc5c4)CC3)CC2)cc1C` (stereo not drawn) [Compound 176, 1-{4-[1-(1H-Benzotriazole-5-carbonyl)-piperidin-4-yl]-piperazin-1-yl}-3-(3,4-dimethyl-phenyl)-butan-1-one] cannot be ordered by IC50: less than 10 µM for the first, less than 30 µM for the second.

`O=C(Cc1ccc2[nH]nnc2c1)N1CCC(N2CCN(C(=O)Nc3cc(Cl)cc(Cl)c3)CC2)CC1` [Compound 140, 4-[1-(2-1H-Benzotriazol-5-yl-acetyl)-piperidin-4-yl]-piperazine-1-carboxylic acid (3,5-dichloro-phenyl)-amide] and `O=C(Cc1ccc2[nH]nnc2c1)N1CCC(N2CCN(C(=O)Cc3ccc(C(F)(F)F)cc3)CC2)CC1` [Compound 138, 2-(1H-Benzotriazol-5-yl)-1-(4-{4-[2-(4-trifluoromethyl-phenyl)-acetyl]-piperazin-1-yl}-piperidin-1-yl)-ethanone] cannot be ordered by IC50: less than 10 µM for the first, less than 10 µM for the second.

`O=C(NC1CCN(C2CCN(C(=O)OCc3ccc(Cl)cc3)CC2)C1)c1ccc2[nH]nnc2c1` (stereo not drawn) [Compound 7, 4-{3-[(1H-Benzotriazole-5-carbonyl)-amino]-pyrrolidin-1-yl}-piperidine-1-carboxylic acid 4-chloro-benzyl ester] and `O=C(OCc1ccc(Br)cc1)N1CCN(C2CCN(C(=O)c3ccc4[nH]nnc4c3)CC2)CC1` [Compound 155, 4-[1-(1H-Benzotriazole-5-carbonyl)-piperidin-4-yl]-piperazine-1-carboxylic acid 4-bromo-benzyl ester] cannot be ordered by IC50: less than 10 µM for the first, less than 1 µM for the second.

`O=C(Nc1ccc(Cl)c(C(F)(F)F)c1)C(=O)N1CCN(C2CCN(C(=O)c3ccc4[nH]nnc4c3)CC2)CC1` [Compound 72, 2-{4-[1-(1H-Benzotriazole-5-carbonyl)-piperidin-4-yl]-piperazin-1-yl}-N-(4-chloro-3-trifluoromethyl-phenyl)-2-oxo-acetamide] and `O=C(OCc1ccc(Cl)c(OC(F)(F)F)c1)N1CCN(C2CCN(C(=O)c3ccc4[nH]nnc4c3)CC2)CC1` [Compound 145, 4-[1-(1H-Benzotriazole-5-carbonyl)-piperidin-4-yl]-piperazine-1-carboxylic acid 4-chloro-3-trifluoromethoxy-benzyl ester] cannot be ordered by IC50: less than 10 µM for the first, less than 10 µM for the second.

`O=C(OCc1ccc(OC(F)(F)F)c(Br)c1)N1CCN(C2CCN(C(=O)c3ccc4[nH]nnc4c3)CC2)CC1` [Compound 166, 4-[1-(1H-Benzotriazole-5-carbonyl)-piperidin-4-yl]-piperazine-1-carboxylic acid 3-bromo-4-trifluoromethoxy-benzyl ester] and `O=C(OCc1ccc2c(c1)OCCO2)N1CCN(C2CCN(C(=O)c3ccc4[nH]nnc4c3)CC2)CC1` [Compound 137, 4-[1-(1H-Benzotriazole-5-carbonyl)-piperidin-4-yl]-piperazine-1-carboxylic acid 2,3-dihydro-benzo[1,4]dioxin-6-ylmethyl ester] cannot be ordered by IC50: less than 1 µM for the first, less than 10 µM for the second.

`O=C(OCc1cc(C(F)(F)F)cc(C(F)(F)F)c1)N1CCN(C2CCN(S(=O)(=O)c3ccc4[nH]c(=O)sc4c3)CC2)CC1` [Compound 153, 4-[1-(2-Oxo-2,3-dihydro-benzothiazole-6-sulfonyl)-piperidin-4-yl]-piperazine-1-carboxylic acid 3,5-bis-trifluoromethyl-benzyl ester] and `O=C(Cc1cc(C(F)(F)F)cc(C(F)(F)F)c1)N1CCN(C2CCN(C(=O)c3ccc4[nH]c(=O)oc4c3)CC2)CC1` [Compound 142, 6-(4-{4-[2-(3,5-Bis-trifluoromethyl-phenyl)-acetyl]-piperazin-1-yl}-piperidine-1-carbonyl)-3H-benzooxazol-2-one] cannot be ordered by IC50: less than 10 µM for the first, less than 10 µM for the second.

`O=C(Nc1ccc2[nH]c(=O)oc2c1)c1cncc(N2CCN(C(=O)OCc3ccc(Cl)cc3)CC2)c1` [Compound 5, 4-[5-(2-Oxo-2,3-dihydro-benzooxazol-6-ylcarbamoyl)-pyridin-3-yl]-piperazine-1-carboxylic acid 4-chloro-benzyl ester] and `O=C(Nc1ccc2[nH]c(=O)oc2c1)C1CC(=O)N(C2CCN(C(=O)OCc3ccc(Cl)cc3)CC2)C1` (stereo not drawn) [Compound 16, 4-[2-Oxo-4-(2-oxo-2,3-dihydro-benzooxazol-6-ylcarbamoyl)-pyrrolidin-1-yl]-piperidine-1-carboxylic acid 4-chloro-benzyl ester] cannot be ordered by IC50: less than 10 µM for the first, less than 10 µM for the second.

`O=C(NCCc1ccncc1)C1CC(=O)N(C2CCN(C(=O)OCc3cc(Cl)cc(Cl)c3)CC2)C1` (stereo not drawn) [Compound 28, 4-[2-Oxo-4-(2-pyridin-4-yl-ethylcarbamoyl)-pyrrolidin-1-yl]-piperidine-1-carboxylic acid 3,5-dichloro-benzyl ester] and `O=C(NCCc1ccccn1)C1CC(=O)N(C2CCN(C(=O)OCc3cc(Cl)cc(Cl)c3)CC2)C1` (stereo not drawn) [Compound 17, 4-[2-Oxo-4-(2-pyridin-2-yl-ethylcarbamoyl)-pyrrolidin-1-yl]-piperidine-1-carboxylic acid 3,5-dichloro-benzyl ester] cannot be ordered by IC50: less than 10 µM for the first, less than 10 µM for the second.

`COc1cc(COC(=O)N2CCN(C3CCN(C(=O)c4ccc5[nH]nnc5c4)CC3)CC2)cc(OC)c1` [Compound 150, 4-[1-(1H-Benzotriazole-5-carbonyl)-piperidin-4-yl]-piperazine-1-carboxylic acid 3,5-dimethoxy-benzyl ester] and `COc1c(C)cc(COC(=O)N2CCN(C3CCN(C(=O)c4ccc5[nH]nnc5c4)CC3)CC2)cc1C` [Compound 120, 4-[1-(1H-Benzotriazole-5-carbonyl)-piperidin-4-yl]-piperazine-1-carboxylic acid 4-methoxy-3,5-dimethyl-benzyl ester] cannot be ordered by IC50: less than 10 µM for the first, less than 10 µM for the second.

`Cc1ccc(-c2ccccc2C(=O)N2CCC(C3CCN(C(=O)c4ccc5[nH]nnc5c4)CC3)CC2)cc1` [Compound 11, [1′-(1H-Benzotriazole-5-carbonyl)-[4,4′]bipiperidinyl-1-yl]-(4′-methyl-biphenyl-2-yl)-methanone] and `O=C(COc1ccc(OC(F)(F)F)cc1)N1CCN(C2CCN(C(=O)c3ccc4[nH]nnc4c3)CC2)CC1` [Compound 160, 1-{4-[1-(1H-Benzotriazole-5-carbonyl)-piperidin-4-yl]-piperazin-1-yl}-2-(4-trifluoromethoxy-phenoxy)-ethanone] cannot be ordered by IC50: less than 1 µM for the first, less than 10 µM for the second.

`O=C(NC1CCC(N2CCN(C(=O)OCc3ccccc3)CC2)CC1)c1ccc2[nH]nnc2c1` (stereo not drawn) [Compound 185, 4-{4-[(1H-Benzotriazole-5-carbonyl)-amino]-cyclohexyl}-piperazine-1-carboxylic acid benzyl ester] and `C[C@@H](OC(=O)N1CCN(C2CCN(C(=O)c3ccc4[nH]nnc4c3)CC2)CC1)c1cc(C(F)(F)F)cc(C(F)(F)F)c1` [Compound 169, 4-[1-(1H-Benzotriazole-5-carbonyl)-piperidin-4-yl]-piperazine-1-carboxylic acid (R)-1-(3,5-bis-trifluoromethyl-phenyl)-ethyl ester] cannot be ordered by IC50: less than 30 µM for the first, less than 1 µM for the second.

`O=C(OCc1cc(C(F)(F)F)cc(C(F)(F)F)c1)N1CCN(C2CCN(C(=O)c3ccc4[nH]nnc4c3)CC2)C(=O)C1` [Compound 184, 4-[1-(1H-Benzotriazole-5-carbonyl)-piperidin-4-yl]-3-oxo-piperazine-1-carboxylic acid 3,5-bis-trifluoromethyl-benzyl ester] and `O=C(OCc1ccc(C(F)(F)F)cc1)N1CCC(n2ccc(-c3ccc4[nH]c(=O)oc4c3)n2)CC1` [Compound 108] cannot be ordered by IC50: less than 1 µM for the first, less than 10 µM for the second.

Work on `O=C(Nc1ccc(-n2cccn2)cc1)C1CC(=O)N(C2CCN(C(=O)OCc3cc(Cl)cc(Cl)c3)CC2)C1` (stereo not drawn) [Compound 55, 4-[2-Oxo-4-(4-pyrazol-1-yl-phenylcarbamoyl)-pyrrolidin-1-yl]-piperidine-1-carboxylic acid 3,5-dichloro-benzyl ester] yielded an IC50 of less than 10 µM.
